“And” between values parts separate entries of the source, which are not always exact repeats. Identical values can stand only once. “Also recorded” adds a separate entry of the source.
Columns and labels:
[1] = tested on: hypoxanthine guanine phosphoribosyltransferase (Hprt) gene in mouse embryonic stem (ES) cells; assay: ENU-induced Hprt-inactivating mutations, 6-TG selection, Protocol 2 (24-well plates); type: cell-based
Procedure: (§1) In the second protocol, actively growing ES cells were trypsinized and plated at two densities (1×10^5 and 0.5×10^5 cells/well) in 24-well tissue culture plates instead of T25 flasks. After a one-day preincubation period, cells were treated for 5 hours with 0.3 mg/ml or 0.4 mg/ml ENU (as described above) and subsequently treated as described in Table 2. [table]

[2] = tested on: Mouse ES cells (129/Sv+Tyr, +p); assay: Survival of ES cells after 5 hour ENU treatment (colony counting); type: cell-based; conditions: for survival: 5 hours, counted after 3 days of culture
Procedure: Mouse ES cells (129/Sv+^Tyr, +^p) were used. Cells were grown in culture medium [MEM (Gibco) supplemented with 15% heat-inactivated fetal calf serum, LIF, and 10 μM β-mercaptoethanol. Cells were routinely grown on 100-mm petri dishes and cultivated at 37° C. in a humidified atmosphere of 5% CO2 in air. For subculturing, cells were disassociated with HBSS containing 0.25% trypsin and 0.02% EDTA. After a 3-minute incubation at room temperature, cells were resuspended in culture medium and cell numbers determined using a hemocytometer.
The plating efficiency was determined by plating 2×10^3 cells per 100-mm dish, fixing the cells after 6-days with methanol, staining with 0.01% crystal violet and scoring colonies. Colonies were scored for the calculation of plating efficiency as percent of the inoculated cell number. The plating efficiencies were approximately 20%.
In the first protocol, actively growing ES cells were trypsinized and plated at 5×10^5 cells per T25 flask and after 1 day preincubation treated for 5 hours with 0.3 mg/ml, 0.4 mg/ml or 0.5 mg/ml ENU (dissolved in medium without FCS by vigorous shaking and filter sterilization with 0.2 μm cellulose acetate filters immediately before use). Control cells and cells which had been treated with ENU were washed three times with PBS and the number of surviving cells determined after 3 days of culture in culture medium by plating 2,000 cells from control and from ENU-treated flasks and counting surviving colonies as described above. […] Surviving EA cells which had been treated with 0.3 mg/ml ENU were subcultured at 3:1 onto 60-mm petri dishes in the presence (set 1) and absence (set 2) of primary embryothic fibroblasts (PMEFs). ES cells grown on PMEFs (set 1) were cultured for 3 days, subcultured at 3:1 onto 60-mm petri dishes without PMEFs, trypsinized, plated at 4×10^5 cells per 100-mm plate without PMEFs and grown for 2 days. ES cells grown in the absence of PMEFs (set 2) were trypsinized-after 5 days in culture and plated at 4×10^5 cells per 100-mm plate without PMEFs. Cells (set 1 and set 2) were subsequently grown for 1 day prior to the addition of 10 μM 6-TG to the culture medium and further incubated for an additional 6 days in the presence of 6-TG. The number of 6-TG resistant colonies was calculated, and individual colonies were separately plated in a 96-well microtiter dish.
as §1, with “2.” for “2. [table]”

[3] = tested on: hypoxanthine guanine phosphoribosyltransferase (Hprt) gene in mouse embryonic stem (ES) cells; assay: ENU-induced Hprt-inactivating mutations, 6-TG selection, Protocol 1; type: cell-based; conditions: 0.3 mg/ml ENU
[4] = literature statement; cited from earlier work

Question: Which results are given for `CCN(N=O)C(N)=O` [ENU, N-ethyl-N-nitrosurea]?
Answer: Total colonies ([1]; 0.3 mg/ml ENU, Plate 1): Total: 23 colonies; No. colonies/plate ([1]; 0.3 mg/ml ENU, Plate 1, day 16, individual 60-mm dishes): Plate 2: 3 colonies; also recorded: Plate 3: 5 colonies; also recorded: Plate 5: 1 colony colonies; also recorded: Plate 6: 1 colony colonies; also recorded: Plate 7: 2 colonies; also recorded: Plate 8: 2 colonies; also recorded: Plate 9: 4 colonies; plates that yielded colonies after 6-thioguanine ([1]; 0.3 mg/ml ENU, Plate 1, day 16, of 24 dishes): 9 plates yielded colonies,; Total colonies ([1]; 0.3 mg/ml ENU, Plate 2): Total: 12 colonies; No. colonies/plate ([1]; 0.3 mg/ml ENU, Plate 2, day 16, individual 60-mm dishes): Plate 2: 1 colony colonies; also recorded: Plate 3: 2 colonies; also recorded: Plate 4: 1 colony colonies; also recorded: Plate 5: 4 colonies; also recorded: Plate 6: 2 colonies; plates that yielded colonies after 6-thioguanine ([1]; 0.3 mg/ml ENU, Plate 2, day 16, of 24 dishes): 6 plates yielded colonies,; Mutation frequency maximum ([1]; 0.4 mg/ml ENU, Plate 4): 1/800; Total colonies ([1]; 0.4 mg/ml ENU, Plate 4): Total: 22 colonies; No. colonies/plate ([1]; 0.4 mg/ml ENU, Plate 4, day 17, individual 60-mm dishes): Plate 1: 14 colonies; also recorded: Plate 2: 18 colonies; plates that yielded colonies after 6-thioguanine ([1]; 0.4 mg/ml ENU, Plate 4, day 17, of 24 dishes): 2 plates yielded colonies, 22; survival ([2]; 0.3 mg/ml ENU): 10%; survival ([2]; 0.4 mg/ml ENU): less than 5%; colonies surviving ([2]; 0.4 mg/ml ENU, Plate 3, 5 days after plating, plate discarded): Discarded, very few; survival ([2]; 0.5 mg/ml ENU): 0%; Total colonies (+PMEF plates) ([3]; 10 μM 6-TG, sum of 6 plates): 21; Total colonies (−PMEF plates) ([3]; 10 μM 6-TG, sum of 6 plates): 77; Mutation Frequency Maximum (−PMEF plates) ([3]; Hprt locus): 1/623; No. Surviving Colonies (−PMEF plates), 6-TG selection (Hprt deficient), per plate ([3]; set 2 grown without PMEFs, 10 μM 6-TG, plates 1-6): 14 and 15 and 12 and 9; efficiency in generating mutations relative to other agents [4]: at least 10 fold

— US6835867B1, “Allelic series of genomic modifications in cells” (priority 1998, dated 2004)
